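Interpolation was linear, between the two tested concentrations surrounding the appropriate level; five concentrations were tested over 48 hours in 96-well plates. The concentration for 50% growth inhibition is given as GI50. TGI: concentration producing complete growth inhibition.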
What was measured:
Experiment in all cases: NCI anticancer screen, dose series, 48 h
HCT-15 colon = system: HCT-15 colon
MCF7 breast = system: MCF7 breast
OVCAR-4 ovarian = system: OVCAR-4 ovarian
SNB-19 CNS = system: SNB-19 CNS
OVCAR-3 ovarian = system: OVCAR-3 ovarian
COLO 205 colon = system: COLO 205 colon
K-562 leukemia = system: K-562 leukemia
RXF 393 renal = system: RXF 393 renal
IGROV1 ovarian = system: IGROV1 ovarian
ACHN renal = system: ACHN renal

| SMILES | TGI (HCT-15 colon) [µM] | TGI (MCF7 breast) [µM] | TGI (OVCAR-4 ovarian) [µM] | TGI (SNB-19 CNS) [µM] | TGI (OVCAR-3 ovarian) [µM] | TGI (COLO 205 colon) [µM] | TGI (K-562 leukemia) [µM] | TGI (RXF 393 renal) [µM] | TGI (IGROV1 ovarian) [µM] | TGI (ACHN renal) [µM] | GI50 (MCF7 breast) [µM] | GI50 (OVCAR-4 ovarian) [µM] | GI50 (SNB-19 CNS) [µM] | GI50 (OVCAR-3 ovarian) [µM] | GI50 (K-562 leukemia) [µM] | GI50 (IGROV1 ovarian) [µM] | GI50 (ACHN renal) [µM] | GI50 (HCT-15 colon) [µM] | GI50 (COLO 205 colon) [µM] | GI50 (RXF 393 renal) [µM] |
| --- | --- | --- | --- | --- | --- | --- | --- | --- | --- | --- | --- | --- | --- | --- | --- | --- | --- | --- | --- | --- |
| CCOc1ccc(N=Nc2ccc(-c3ccc(N=Nc4c(O)ccc5cc(S(=O)(=O)O)cc(S(=O)(=O)O)c45)cc3)cc2)cc1 | > 100 | > 100 | > 100 | > 100 | > 100 | > 100 | > 100 | > 100 | > 100 | > 100 |  |  |  |  |  |  |  |  |  |  |
| C[N+]1(C)C/C(=C\c2ccc(O)cc2)C(=O)/C(=C/c2ccc(O)cc2)C1 | > 100 |  | > 100 | > 100 | > 100 | > 100 |  | > 100 | > 100 | > 100 |  |  |  |  |  |  |  |  |  |  |
| CC1(Cc2cc3c(cc2C2(c4ccc([N+](=O)[O-])cc4)OCCO2)OCO3)OCCO1 | > 100 | > 100 | > 100 | > 100 | > 100 | > 100 | > 100 | > 100 | > 100 | > 100 |  |  |  |  |  |  |  |  |  |  |
| O=C(CSc1nc2ccc(I)cc2c(=O)n1Cc1ccccc1)NN1C(=O)CSC1c1ccccc1 (configuration not stated) | 40.5 | 42.1 | 76.1 | > 100 | 32.4 | 34.6 | > 100 | 57.4 | 55.6 | 33.1 |  |  |  |  |  |  |  |  |  |  |
| CC(=O)c1c(C)cc2cccc(OC3OC(CO)C(O)C(O)C3O)c2c1O (configuration not stated) (tested in a mixture with another compound) | > 100 | > 100 | > 100 | > 100 | > 100 | > 100 | > 100 | > 100 | > 100 | > 100 |  |  |  |  |  |  |  |  |  |  |
| O=C(/C=C/c1ccc(O)cc1)c1cc(-c2cc(CCC(=O)c3ccc(O)cc3O)ccc2O)c(O)cc1O | > 50 | > 50 | > 50 | > 50 | > 50 | 22.6 | 48.4 | > 50 | > 50 | > 50 |  |  |  |  |  |  |  |  |  |  |
| O=C1O/C(=C\C=C\CO)C=C1/C=C/CO | 30.8 | > 100 | > 100 | 51.4 | 48.8 | 5.16 | > 100 | 38.3 | 38.6 | 69.5 |  |  |  |  |  |  |  |  |  |  |
| O=S(=O)([O-])[O-].[Fe+2].[OH2+]c1c(Cl)cc(Cl)cc1/C=N/Nc1ccccn1 | 3.48 |  |  | 3.64 | 0.578 | 3.47 | 3.26 | 1.9 | 3.13 | 1.12 |  |  |  |  |  |  |  |  |  |  |
| Cc1cc(C)nc(NS(=O)(=O)c2ccc(Nc3nnc(/C=C/c4c(O)ccc5ccccc45)c(=O)n3N)cc2)n1 | 30.9 | 45.7 | 85.2 | > 100 | 56 |  | > 100 | 55.3 | > 100 | 53.8 |  |  |  |  |  |  |  |  |  |  |
| COc1cc(O)c2c(=O)c(OC)c(-c3ccc(OC)c(OC)c3)oc2c1.[Zn+2] |  | > 100 | 32.2 | > 100 | 35.7 | > 100 | > 100 | 45.6 | > 100 | > 100 | 92.3 | 4.19 | 4.31 | 14.1 | 41.6 | 29.8 | 35.4 |  |  |  |
| Nc1ccc(S(=O)(=O)NCCS(=O)(=O)O)cc1 | > 100 |  | > 100 | > 100 | > 100 |  | > 100 | > 100 | > 100 | > 100 |  |  |  |  |  |  |  |  |  |  |
| CC(=O)[C@]12OC(=O)C3=C1[C@H](CC[C@@H]3C)[C@@H](C)C[C@H]2C=C(C)C | 15.5 | 17.2 |  | 16.4 | 14 | 16.1 | 13.2 |  | 14.2 | 15.3 |  |  |  |  |  |  |  |  |  |  |
| O=C(c1ccc(Cl)c(Cl)c1)N(C(=O)N1CCN(c2ccccc2)CC1)S(=O)(=O)c1ccccc1 | 59.1 | > 100 | 65.6 | > 100 | > 100 | > 100 | > 100 | > 100 |  | > 100 |  |  |  |  |  |  |  |  |  |  |
| Cc1c(-c2ccccc2)c(C#N)c2nnn(C)c(=O)n12 | > 100 | > 100 | > 100 | > 100 | > 100 | > 100 | > 100 | > 100 | > 100 | > 100 |  |  |  |  |  |  |  |  |  |  |
| CC(=O)Oc1cc(/C=C/c2ccc(O)cc2)cc(OC(C)=O)c1 | > 100 | > 100 | > 100 | > 100 | > 100 | > 100 | > 100 | > 100 | > 100 | > 100 |  |  |  |  |  |  |  |  |  |  |
| CCCCCCCCc1ccc(CCC(N)(CO)CO)cc1 | 3.42 | 3.07 |  |  | 3.48 | 2.92 | 4.33 | 2.85 | 3.9 | 2.97 | 1.67 |  |  | 1.94 | 1.82 | 1.89 | 1.61 | 1.68 | 1.58 | 1.52 |
| CC(=O)C(N=NC1CCC(S(=O)(=O)NB2N=CS2)CC1)C(=O)Nc1ccccc1C (configuration not stated) | 22.3 |  | 74.1 | 31.2 | 27 | 37.2 | > 100 | 35.9 | 35.2 | 24.6 |  |  |  |  |  |  |  |  |  |  |
| Cc1ccccc1C1CC(=O)CC(c2ccccc2C)C12C(=O)NC(=S)NC2=O (configuration not stated) | 56.6 | > 100 | > 100 | > 100 | 82.8 | 42.4 | > 100 | 38.8 |  | 38.6 |  |  |  |  |  |  |  |  |  |  |
| NC(=S)N/N=C1\CC(c2ccccc2)Nc2ccccc21 (configuration not stated) | > 100 |  |  | > 100 | > 100 | 73.3 | > 100 |  | > 100 | > 100 |  |  |  |  |  |  |  |  |  |  |
| C[N+]1(c2ccccc2)C=C(c2ccccc2)SC1=S (configuration not stated) | > 100 | > 100 |  | > 100 | > 100 | > 100 | > 100 | > 100 | > 100 | > 100 |  |  |  |  |  |  |  |  |  |  |
| Cc1ncc(COP(=O)(O)O)c(C)c1O | > 100 |  | > 100 | > 100 | > 100 |  | > 100 | > 100 | > 100 | > 100 |  |  |  |  |  |  |  |  |  |  |
| CC(C)=CC[C@H]1C[C@@]2(CC=C(C)C)C(=O)/C(=C(/O)c3ccccc3)C(=O)[C@](CC=C(C)C)(C2=O)C1(C)C | 26.5 | 21.5 | 26.4 | 20.4 |  |  | 50.4 | 24.1 | 20.3 | 21.8 |  |  |  |  |  |  |  |  |  |  |
